The test system of series [1] is HT29 cells. Put plainly: MTS assay. The format is cell-based. The following applies: Homo sapiens, HT-29, compound for 24 hours, then drug-free medium for additional 48 hours, MTS readout. As for the experimental part:
HT29 cells were seeded in 96-well plates at 1,800 cells/well overnight in medium with 10% FBS. The next day, cells were treated with increasing concentrations of compounds for 24 hours at 37° C. After the treatments, the compound-containing medium was removed, cells were washed twice with PBS, and incubated in drug-free medium containing 10% FBS for an additional 48 hours. After addition of MTS and PMS for 4 hours at concentrations of 2 mg/mL and 0.92 mg/mL, respectively, the results were quantitated by spectrophotometry at λ=490 nm and IC50 for each compound was determined

Series [2] concerns the target T1, Recombinant unphosphorylated c-Met comprising residues 1038-1346 (Homo sapiens, UniProt P08581).
T1 construct: The DNA fragment encoding the kinase domain (1038-1346) was inserted into Novagen vector pet28a; six-histidine tag (N); made in house; host or cells: E. coli BL21(DE3)RIL
Put plainly: c-Met p33 kinase assay (33P-ATP, IGF-1 Rtide substrate). The class given is biochemical. The note with it: 15 minutes preincubation, 100 μM ATP, 30 minutes reaction. The text has this:
cDNA of full-length c-Met purchased from Origen Technologies was used as template for PCR amplification. The DNA fragment encoding the kinase domain (1038-1346) was inserted into Novagen vector pet28a between Nco1 and Sal1 sites. The primers were designed to contain a six-histidine tag to the N-terminus. In order to express dephosphorylated c-Met kinase protein, a tyrosine phosphatase PTP1B (1-283) was sequentially ligated into the made construct between SalI and Nod sites. A second ribosome binding site was incorporated in the PTP1B primer after the SalI site. The N-terminal His-tagged proteins were expressed in Circlegrow broth (Q-Biogen). The transformed E. Coli cell line BL21(DE3)RIL (Stratagene) was cultured to OD=0.8 at 37° C. and induced with 0.3 mM of IPTG for overnight at 12° C. The co-expressed protein was purified by metal-chelation chromatography followed by anion and cation columns. In brief, 4 liters of cells were lysed by sonication in 140 ml buffer containing 20 mM MOPS pH=6.5, 200 mM NaCl, 7.5% glycerol, 0.1% Igepal, supplied with 1 mM PMSF. The supernatant was obtained by centrifugation at 50,000 g for 30 minutes and followed by incubation with 8 mL of Ni-NTA His Bind resin (Novagen) at 4° C. for one hour. A second step 50 mL wash buffer (with 100 mM NaCl and 5 mM imidazole) was applied after initial wash with the lysis buffer. Protein was eluted by 200 mM imidazole pH=8.5, 100 mM NaCl and 7.5% glycerol and directly cleared by passing 10 mL QFF column. The salt concentration and the pH value of the protein flow through were adjusted to 50 mM and 7.5 by dilution, and then loaded to 1 mL SP FF column. The protein was further gel-filtered in an equilibrium buffer of 20 mM TrisHCl pH=8.5, 150 mM NaCl, 7.5% glycerol and 2 mM DTT. The monomeric unphosphorylated c-Met protein was concentrated to 30 mg/mL for storage at −80° C.
Recombinant unphosphorylated c-Met comprising residues 1038-1346 (12.5 ng) was pre-incubated with increasing concentrations of compounds for 15 minutes at room temperature. […]

Series [3] concerns HT29 cells. Description: Cell death by Annexin V-Fluos staining after siRNA transfection, high content imaging. The note with it: increasing concentrations of caspase inhibitor for 1 additional day after transfection. The format is cell-based. How it is done:
Exponentially growing HT29 cells were plated in black 96-well plates at 5,000 cells/well overnight in medium with 10% FBS. The next day, cells were transiently transfected for 2 days using DharmaFECT 4 reagent with a pool of four met-specific 21-nucleotide RNA oligonucleotides forming a 19-bp duplex core with 2-nucleotide 3′ overhang in combination (Dharmacon, Inc., Lafayette, Colo.). Transfection of gapdh siRNA (Dharmacon, Inc.) and of a non-targeting siRNA under the same conditions was done in parallel as controls (Dharmacon, Inc.). Cells were then incubated in the absence or the presence of increasing concentrations of ZvAD-FMK, an irreversible caspase inhibitor for 1 additional day. Cells were incubated for at least 10 minutes in a labeling solution (10 mM HEPES, 140 mM NaCl and 6 mM CaCl2) containing 2 μg/ml Hoechst 33342 (blue channel; Molecular Probes/Invitrogen Corp., Natick, Mass.), 500 times diluted Annexin V-Fluos (green channel; Roche Applied Science, Indianapolis, Ind.) and 1 μg/ml propidium iodide (red channel; Roche Applied Science). High content image acquisition and analysis were carried out using a Beckman Coulter IC100 Cytometer. The program was set to take four images per well. […] Images were processed and numbers of positive cells for each channel and each condition were determined using Cytoshop 2.1 software (Beckman Coulter, Inc.). […]

Where a SMILES comes first, the peptide text is derived from it. The star is where a group is joined. Cbz = O=C(OCc1ccccc1)*; CH2F = FC*

T1 sequence (P08581 1038-1346): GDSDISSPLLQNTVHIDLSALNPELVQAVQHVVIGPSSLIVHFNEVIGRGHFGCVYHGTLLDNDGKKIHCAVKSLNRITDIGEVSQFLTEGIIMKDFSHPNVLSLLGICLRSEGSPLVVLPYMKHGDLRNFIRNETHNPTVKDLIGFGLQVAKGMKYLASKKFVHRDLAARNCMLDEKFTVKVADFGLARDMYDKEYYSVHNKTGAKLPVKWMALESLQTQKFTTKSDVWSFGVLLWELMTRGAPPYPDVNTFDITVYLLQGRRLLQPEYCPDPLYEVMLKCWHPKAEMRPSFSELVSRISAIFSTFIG

Turning to `O=C1NC(=O)[C@@H](c2c[nH]c3ccccc23)[C@@H]1Cc1cn2c3c(cccc13)CCC2` (racemic) [Example 6, (±)-trans-3-(5,6-dihydro-4H-pyrrolo[3,2,1-ij]quinolin-1-ylmethyl)-4-(1H-indol-3-yl)-pyrrolidine-2,5-dione], the melting point is 215 to 218 °C. This compound yielded an IC50 in the series with HT29 cells [1] of 1 to 10 µM.

For `O=C1NC(=O)[C@H](c2c[nH]c3ccccc23)[C@@H]1C(=O)c1cn2c3c(cccc13)CCC2` (racemic) [Example 9, (±)-cis-3-(5,6-dihydro-4H-pyrrolo[3,2,1-ij]quinoline-1-carbonyl)-4-(1H-indol-3-yl)-pyrrolidine-2,5-dione], the melting point was in the range of 283 to 285 °C. In the series with HT29 cells [1], the IC50 lay in the range of 1 to 10 µM. In series [2], the IC50 is at least 10 µM.

`O=C1NC(=O)[C@@H](c2cc3c4c(ccn4CCC3)c2)[C@H]1c1c[nH]c2ccccc12` (racemic) [Example 16] returned a melting point of 141 to 145 °C. Further, the IC50 in the series on HT29 cells [1] was at most 1 µM. For the same compound, the IC50 in series [2] was at least 10 µM.

Turning to `O=C1NC(=O)[C@@H](c2c[nH]c3ccc(Br)cc23)[C@@H]1c1cc2c3c(ccn3CCC2)c1` (racemic) [Example 19, (±)-trans-3-(5-bromo-1H-indol-3-yl)-4-(5,6-dihydro-4H-pyrrolo[3,2,1-ij]quinolin-8-yl)-pyrrolidine-2,5-dione], the melting point fell in the range of 195 to 200 °C. The IC50 with HT29 cells [1] is at most 1 µM.

`O=C1NC(=O)[C@@H](c2ccccc2Cl)[C@@H]1c1cc2c3c(ccn3CCC2)c1` (racemic) [Example 22, (±)-trans-3-(2-chloro-phenyl)-4-(5,6-dihydro-4H-pyrrolo[3,2,1-ij]quinolin-8-yl)-pyrrolidine-2,5-dione] yielded a melting point of 209 to 212 °C. Further, the IC50 in the series with HT29 cells [1] was at most 1 µM.

In the series on HT29 cells [1], `COc1cccc([C@@H]2C(=O)NC(=O)[C@H]2c2cc3c4c(ccn4CCC3)c2)c1` (racemic) [Example 25, (±)-trans-3-(5,6-dihydro-4H-pyrrolo[3,2,1-ij]quinolin-8-yl)-4-(3-methoxy-phenyl)-pyrrolidine-2,5-dione] returned an IC50 of at most 1 µM.

`O=C1NC(=O)[C@@H](c2cn3c4c(cccc24)CC3)[C@@H]1c1c[nH]c2ccccc12` (racemic) [Example 33, (±)-trans-3-(4,5-dihydro-pyrrolo[3,2,1-hi]indol-1-yl)-4-(1H-indol-3-yl)-pyrrolidine-2,5-dione] came in with a melting point of 144 to 148 °C. Besides, the IC50 with HT29 cells [1] was at most 1 µM. For the same compound, the IC50 in series [2] is at least 10 µM.

With `COC(=O)C[C@H](NC(=O)[C@H](C)NC(=O)[C@@H](NC(=O)OCc1ccccc1)C(C)C)C(=O)CF` [ZvAD-FMK] (Cbz-Val-Ala-Asp(OMe)-CH2F), the “levels of cell death in met siRNA transfected cells” value with HT29 cells [3] is listed as “decreased the levels of cell death”.

These data come from patent US8513292B2, “Compositions and methods for the treatment of cancer” (ArQule, Inc., priority 2007, dated 2013).
